Assay results published in ChEMBL document CHEMBL1139090, “Synthesis of potent and tissue-selective androgen receptor modulators (SARMs): 2-(2,2,2)-Trifluoroethyl-benzimidazole scaffold” (Bioorg Med Chem Lett, 2007).
pIC50: −log10 of the molar value. The source made the active and inactive calls. The rule behind the calls is not given here.

Columns and labels:
Rattus norvegicus [1] = assay: Inhibition of prostate weight in immature Sprague-Dawley rat at 2 mg/day, sc relative to testosterone; format: functional, Prostate gland; conditions: for Activity: Prostate gland
Rattus norvegicus [2] = species on record: Rattus norvegicus; assay: Stimulation of levator ani muscle weight in immature Sprague-Dawley rat at 2 mg/day relative to testosterone; format: functional
Rattus norvegicus [3] = species on record: Rattus norvegicus; assay: Stimulation of levator ani muscle weight in immature Sprague-Dawley rat; format: functional
Androgen receptor = target: T1, Androgen receptor (Homo sapiens, UniProt P10275); assay: Binding affinity at androgen receptor expressed in COS cells by whole cell binding assay; format: cell-based
T1 sequence (P10275 whole entry): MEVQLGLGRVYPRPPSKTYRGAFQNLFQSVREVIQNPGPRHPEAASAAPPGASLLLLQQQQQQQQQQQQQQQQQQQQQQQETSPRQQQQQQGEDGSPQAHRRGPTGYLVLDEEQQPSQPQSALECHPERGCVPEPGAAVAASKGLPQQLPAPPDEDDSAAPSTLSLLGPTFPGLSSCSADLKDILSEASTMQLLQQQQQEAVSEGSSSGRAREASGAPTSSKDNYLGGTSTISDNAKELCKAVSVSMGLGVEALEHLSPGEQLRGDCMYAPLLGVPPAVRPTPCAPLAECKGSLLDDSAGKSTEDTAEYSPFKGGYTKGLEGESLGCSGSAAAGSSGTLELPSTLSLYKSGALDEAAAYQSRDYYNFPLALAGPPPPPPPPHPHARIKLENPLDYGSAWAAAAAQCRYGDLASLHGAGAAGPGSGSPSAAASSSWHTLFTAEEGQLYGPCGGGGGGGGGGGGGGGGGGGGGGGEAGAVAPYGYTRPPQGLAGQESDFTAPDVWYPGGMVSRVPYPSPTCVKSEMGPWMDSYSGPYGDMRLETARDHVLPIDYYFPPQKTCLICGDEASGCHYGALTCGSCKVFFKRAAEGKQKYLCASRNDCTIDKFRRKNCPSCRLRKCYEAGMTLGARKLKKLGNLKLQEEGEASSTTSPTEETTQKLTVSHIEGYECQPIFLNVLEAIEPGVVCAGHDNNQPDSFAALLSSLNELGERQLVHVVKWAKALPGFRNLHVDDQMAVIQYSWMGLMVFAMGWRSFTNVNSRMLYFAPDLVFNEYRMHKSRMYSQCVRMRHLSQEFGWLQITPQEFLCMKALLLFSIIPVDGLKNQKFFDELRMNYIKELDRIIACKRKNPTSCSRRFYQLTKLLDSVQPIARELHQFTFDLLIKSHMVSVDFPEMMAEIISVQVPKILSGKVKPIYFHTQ

Rattus norvegicus [4] = species on record: Rattus norvegicus; assay: Stimulation of levator ani muscle weight in mature Sprague-Dawley rat; format: functional
Rattus norvegicus [5] = species on record: Rattus norvegicus; assay: Inhibition of prostate weight in immature Sprague-Dawley rat; format: functional, Prostate gland
Rattus norvegicus [6] = species on record: Rattus norvegicus; assay: Toxicity in immature Sprague-Dawley rat at 3 mg/day; format: organism-based; conditions: in vivo

SMILES | Inhibition (Rattus norvegicus [1]) | Activity (Rattus norvegicus [2]) | other results
FC(F)(F)C1(c2nc3cc(Cl)c(Cl)cc3[nH]2)CCCO1 (stereo unspecified) | 55% | 64% | 
N#CCC(O)(c1nc2cc(Cl)c(Cl)cc2[nH]1)C(F)(F)F (stereo unspecified) | 9% | 126% | ED50 (Rattus norvegicus [3]): 0.03 mg/day
C/C=C/CC(O)(c1nc2cc(Cl)c(Cl)cc2[nH]1)C(F)(F)F (stereo unspecified) | 74% | 10% | 
CCSCC(O)(c1nc2cc(Cl)c(Cl)cc2[nH]1)C(F)(F)F (stereo unspecified) | 31% | 96% | ED50 (Rattus norvegicus [3]): 0.1 mg/day; pIC50 (Androgen receptor): 7.77
C=C(C)CC(O)(c1nc2cc(Cl)c(Cl)cc2[nH]1)C(F)(F)F (stereo unspecified) | 59% | 17% | 
C=C(C)C(O)(c1nc2cc(Cl)c(Cl)cc2[nH]1)C(F)(F)F (stereo unspecified) | 127% | inactive | 
CC(C)=CC(O)(c1nc2cc(Cl)c(Cl)cc2[nH]1)C(F)(F)F (stereo unspecified) | 45% | 13% | 
C=CC(O)(c1nc2cc(Cl)c(Cl)cc2[nH]1)C(F)(F)F (stereo unspecified) | 56% | 82% | ED50 (Rattus norvegicus [4]): < 0.3 mg/kg; ED50 (Rattus norvegicus [3]): 0.04 mg/day; pIC50 (Androgen receptor): 8.15
FC(F)(F)C1(c2nc3cc(Cl)c(Cl)cc3[nH]2)CCCN1 (stereo unspecified) | 35% | 4% | 
C[C@](O)(CS(=O)(=O)c1ccc(F)cc1)C(=O)Nc1ccc(C#N)c(C(F)(F)F)c1 [(R)-BICALUTAMIDE] | 70% | inactive | 
CC(C)=C(C)C(O)(c1nc2cc(Cl)c(Cl)cc2[nH]1)C(F)(F)F (stereo unspecified) | 47% | inactive | 
C=C=CC(O)(c1nc2cc(Cl)c(Cl)cc2[nH]1)C(F)(F)F (stereo unspecified) | 85% | 99% | ED50 (Rattus norvegicus [3]): 0.075 mg/day
C=CCC(O)(c1nc2cc(Cl)c(Cl)cc2[nH]1)C(F)(F)F (stereo unspecified) | 87% | 34% | ID50 (Rattus norvegicus [5]): 0.67 mg/day; ED50 (Rattus norvegicus [3]): 1.4 mg/day
C/C=C\C(O)(c1nc2cc(Cl)c(Cl)cc2[nH]1)C(F)(F)F (stereo unspecified) | 70% | 73% | ED50 (Rattus norvegicus [3]): 0.11 mg/day
OC(c1ccccc1)(c1nc2cc(Cl)c(Cl)cc2[nH]1)C(F)(F)F (stereo unspecified) | 61% | inactive | 
CCCC(O)(c1nc2cc(Cl)c(Cl)cc2[nH]1)C(F)(F)F (stereo unspecified) | 63% | 67% | 
CC(C)=CCC(O)(c1nc2cc(Cl)c(Cl)cc2[nH]1)C(F)(F)F (stereo unspecified) | 71% | inactive | 
OC(Cc1ccccc1)(c1nc2cc(Cl)c(Cl)cc2[nH]1)C(F)(F)F (stereo unspecified) | 86% | inactive | 
OC(CSCC(F)(F)F)(c1nc2cc(Cl)c(Cl)cc2[nH]1)C(F)(F)F (stereo unspecified) |  | 26% | Activity (Rattus norvegicus [1]): inactive
CCC(C)(C)C(O)(c1nc2cc(Cl)c(Cl)cc2[nH]1)C(F)(F)F (stereo unspecified) | 42% | 11% | 
C=C=C(C)C(O)(c1nc2cc(Cl)c(Cl)cc2[nH]1)C(F)(F)F (stereo unspecified) | 78% | 15% | 
C#CCC(O)(c1nc2cc(Cl)c(Cl)cc2[nH]1)C(F)(F)F (stereo unspecified) | 68% | 71% | 
CCC(O)(c1nc2cc(Cl)c(Cl)cc2[nH]1)C(F)(F)F (stereo unspecified) | 25% | 106% | Activity (Rattus norvegicus [6]): Toxic
CC#CC(O)(c1nc2cc(Cl)c(Cl)cc2[nH]1)C(F)(F)F (stereo unspecified) | 79% | inactive | 
FC(F)(F)C1(c2nc3cc(Cl)c(Cl)cc3[nH]2)C=CCO1 (stereo unspecified) |  | 50% | Activity (Rattus norvegicus [1]): inactive
C/C=C/C(O)(c1nc2cc(Cl)c(Cl)cc2[nH]1)C(F)(F)F (stereo unspecified) | 61% | 23% | 
OC(Cc1ccc(F)cc1)(c1nc2cc(Cl)c(Cl)cc2[nH]1)C(F)(F)F (stereo unspecified) | 72% | inactive | 
FC(F)(F)C1(c2nc3cc(Cl)c(Cl)cc3[nH]2)C=CCN1 (stereo unspecified) | 57% | 8% | 
CC(C)C(O)(c1nc2cc(Cl)c(Cl)cc2[nH]1)C(F)(F)F (stereo unspecified) | 33% | 87% | ED50 (Rattus norvegicus [3]): 0.05 mg/day; pIC50 (Androgen receptor): 8.70
